In ChEMBL document CHEMBL3813603, “Selective anti-malarial minor groove binders” (Bioorg Med Chem Lett, 2016):

What was measured:
Plasmodium falciparum [1] = experiment: Antimalarial activity against Plasmodium falciparum Dd2 incubated for 72 hours by DAPI-staining based confocal imaging analysis; assay type: functional, organism-based; conditions: Dd2, 72 h
HEK293 [2] = experiment: (§1) Cytotoxicity against HEK293 cells at 20 uM by alamar blue assay; assay type: cell-based; conditions: human, hek293, 20 µM
Plasmodium falciparum [3] = experiment: Antimalarial activity against Plasmodium falciparum 3D7 incubated for 72 hours by DAPI-staining based confocal imaging analysis; assay type: functional, organism-based
[4] = as §1; assay type: cell-based; conditions: human, HEK293 cells; read-out: INH
[5] = Therapeutic ratio of IC50 for HEK293 cells to IC50 for Plasmodium falciparum 3D7; assay type: cell-based; conditions: human, HEK293 cells versus Plasmodium falciparum 3D7; read-out: Ratio IC50
Plasmodium falciparum [6] = experiment: Antimalarial activity against Plasmodium falciparum Dd2 at 20 uM incubated for 72 hours by DAPI-staining based confocal imaging analysis; assay type: functional; conditions: Dd2, 72 h
HEK293 [7] = experiment: Cytotoxicity against HEK293 cells by alamar blue assay; assay type: cell-based; conditions: Homo sapiens
Plasmodium falciparum [8] = experiment: Antimalarial activity against Plasmodium falciparum 3D7 at 20 uM incubated for 72 hours by DAPI-staining based confocal imaging analysis; assay type: functional; conditions: 3D7, 72 h
[9] = Cytotoxicity against HEK293 cells at 10 uM by alamar blue assay; assay type: cell-based; conditions: human, read-out: INH
[10] = Plasmodium falciparum, 3D7, 72 h, read-out: IC50

| Structure (SMILES) | IC50 (Plasmodium falciparum [1]) [nM] | Activity (HEK293 [2]) | IC50 (Plasmodium falciparum [3]; [10]) [nM] | selectivity ratio [5] | further results |
| --- | --- | --- | --- | --- | --- |
| CC(C)CCc1sc(NC(=O)c2cc(NC(=O)c3ccc(/C=C/c4ccc5ccccc5n4)cc3)cn2C)nc1C(=O)NCCN1CCOCC1 | 241 | Non-toxic | 103 | – | – |
| CC(C)CCc1sc(NC(=O)c2cc(NC(=O)c3cc(/C=C/c4ccc([N+](=O)[O-])cc4)cn3C)cn2C)nc1C(=O)NCCCN(C)C | 339 | – | 350 | > 14 | cytotoxicity at 20 µM [4]: 60% |
| COc1cccc(C(=N)Nc2cc(C(=O)Nc3cc(C(=O)Nc4cc(C(=O)NCCCN5CCOCC5)n(C)c4)n(C)c3)n(C)c2)c1 | – | Non-toxic | – | – | inhibition at 20 µM (Plasmodium falciparum [6]): 35%; IC50 (Plasmodium falciparum [3]): Not Active |
| CC(=N)Nc1cc(C(=O)Nc2cc(C(=O)Nc3cc(C(=O)NCCCN(C)C)n(C)c3)n(C)c2)n(C)c1 | 6460 | Non-toxic | 6420 | – | – |
| Cn1cc(NC(=O)c2cc(NC(=O)c3ccc(/C=C/c4nc5ccccc5o4)cc3)cn2C)cc1C(=O)NCCN1CCOCC1 | 38 | Non-toxic | 39 | > 514 | – |
| CC(C)CCc1sc(NC(=O)c2cc(NC(=O)c3cc4ccccc4cn3)cn2C)nc1C(=O)NCCCN(C)C | 2000 | Non-toxic | 1410 | – | – |
| CN(C)CCCn1cnc(NC(=O)c2cc(NC(=O)c3cc(NC(=O)c4cc5ccccc5cn4)cn3C)cn2C)c1.O=C(O)C(F)(F)F | 4480 | Non-toxic | 5490 | – | – |
| Cn1cc(NC(=O)c2cc(NC(=O)c3ccc(/C=C/c4ccc5nsnc5c4)cc3)cn2C)cc1C(=O)NCCN1CCOCC1 | 5140 | Non-toxic | 6040 | – | – |
| Cn1cc(NC(=O)c2cc(NC(=O)c3cc(NC(=O)c4cc5ccccc5cn4)cn3C)cn2C)cc1C(=O)NCCCN1CCOCC1 | 5990 | Non-toxic | 7860 | – | – |
| CSc1ccc(/C=C/c2ccc3cc(C(=O)Nc4cc(C(=O)Nc5cc(C(=O)NCCN6CCOCC6)n(C)c5)n(C)c4)ccc3n2)cc1 | 1900 | Non-toxic | 1770 | – | – |
| CC(C)CCc1sc(NC(=O)c2cc(NC(=O)c3ccc(/C=C/c4ccc5ccccc5c4)cc3)cn2C)nc1C(=O)NCCN1CCOCC1 | 588 | Non-toxic | 390 | > 50 | – |
| Cn1cc(NC(=O)c2cc(NC(=O)c3ccc(/C=C/c4cccc(F)c4)cc3)cn2C)cc1C(=O)NCCN1CCOCC1 | 2750 | Non-toxic | 3320 | – | – |
| CN(C)CCCNC(=O)c1cc(NC(=O)c2cc(NC(=O)c3cc4ccccc4cn3)cn2C)cn1C | 4350 | Non-toxic | 4700 | – | – |
| COc1cccc(/C=C/c2ccc(C(=O)Nc3cc(C(=O)Nc4nc(C(=O)NCCCN(C)C)c(CCC(C)C)s4)n(C)c3)cc2)c1 | 1130 | – | 544 | > 36 | cytotoxicity at 20 µM [4]: 86% |
| CC(C)c1sc(NC(=O)c2cc(NC(=O)c3cc(NC(=O)c4cc5ccccc5cn4)cn3C)cn2C)nc1C(=O)NCCN1CCOCC1 | 636 | Non-toxic | 469 | > 42 | – |
| C[C@@H]1CC[C@H]2[C@@H](C)C(=O)O[C@@H]3O[C@@]4(C)CC[C@@H]1[C@]32OO4 [ARTEMISININ] | 9 | – | – | > 10000 | IC50 (HEK293 [7]): > 120000 nM |
| Cn1cc(NC(=O)c2cc(NC(=O)c3ccc(/C=C/c4ccc5nonc5c4)cc3)cn2C)cc1C(=O)NCCN1CCOCC1 | 2300 | Non-toxic | 1930 | – | – |
| CCN(CC)CCCC(C)Nc1ccnc2cc(Cl)ccc12 (configuration not stated) [CHLOROQUINE] | – | – | – | – | IC50 (HEK293 [7]): > 120000 nM |

| Structure (SMILES) | IC50 (Plasmodium falciparum [1]) [nM] | Activity (HEK293 [2]) | IC50 (Plasmodium falciparum [3]; [10]) [nM] | selectivity ratio [5] | further results |
| --- | --- | --- | --- | --- | --- |
| COc1ccc(C[C@H](N)C(=O)N[C@H]2[C@@H](O)[C@H](n3cnc4c(N(C)C)ncnc43)O[C@@H]2CO)cc1 [PUROMYCIN] | 62 | – | 60 | 6 | – |
| CC(C)n1cc(NC(=O)c2cc(NC(=O)c3cnc(Cl)c(Cl)c3)cn2C)cc1C(=O)Nc1cc(C(=O)NCCCN(C)C)n(C)c1 | – | Non-toxic | – | – | inhibition at 20 µM (Plasmodium falciparum [6]): 65%; inhibition at 20 µM (Plasmodium falciparum [8]): 75% |
| Cn1cc(NC(=O)c2cc(NC(=O)c3ccc(/C=C/c4ccc(F)cc4)cc3)cn2C)cc1C(=O)NCCN1CCOCC1 | 3340 | Non-toxic | 3300 | – | – |
| CC(C)CCc1sc(NC(=O)c2cc(NC(=O)c3cc(/C=C/c4ccc([N+](=O)[O-])cc4)cn3C)cn2C)nc1C(=O)NCCN1CCOCC1 | 289 | – | 322 | > 60 | cytotoxicity at 20 µM [4]: 54% |
| Cn1cc(NC(=O)c2cc(NC(=O)c3cc(NC(=O)c4ccc(Cl)cc4Cl)cn3C)cn2C)cc1C(=O)NCCN1CCOCC1 | 3070 | Non-toxic | 1800 | – | – |
| Cn1cc(NC(=O)c2cc(NC(=O)c3cc4ccccc4cn3)cn2C)cc1C(=O)NCCN1CCOCC1 | 3270 | Non-toxic | 4310 | – | – |
| COc1cccc(/C=C/c2cccc(C(=O)Nc3cc(C(=O)Nc4nc(C(=O)NCCCN(C)C)c(CCC(C)C)s4)n(C)c3)c2)c1 | 1150 | – | 868 | 6.7 | IC50 (HEK293 [7]): 5800 nM |
| Cn1cc(NC(=O)c2cc(NC(=O)c3cc(NC(=O)c4ccc(Cl)cc4Cl)cn3C)cn2C)cc1C(=O)NCCCN1CCOCC1 | 3620 | Non-toxic | 3040 | – | – |
| CN(C)CCCNC(=O)c1cc(NC(=O)c2cc(NC(=O)c3cc(NC(=N)c4ccccc4)cn3C)cn2C)cn1C | – | Non-toxic | – | – | inhibition at 20 µM (Plasmodium falciparum [6]): 63%; inhibition at 20 µM (Plasmodium falciparum [8]): 90% |
| COc1ccc(/C=C/c2ccc3cc(C(=O)Nc4cc(C(=O)Nc5cc(C(=O)NCCN6CCOCC6)n(C)c5)n(C)c4)ccc3n2)cc1 | 2990 | Non-toxic | 1950 | – | – |
| COc1ccnc(C(=N)Nc2cc(C(=O)Nc3cc(C(=O)Nc4nc(C(=O)NCCN5CCOCC5)c(C(C)C)s4)n(C)c3)n(C)c2)c1 | 2970 | Non-toxic | 2730 | – | – |
| Cn1cc(NC(=O)c2cc(NC(=O)c3ccc(/C=C/c4ccc(C(F)(F)F)cc4)cc3)cn2C)cc1C(=O)NCCN1CCOCC1 | 3690 | Non-toxic | 3570 | – | – |
| CCc1nc(N)nc(N)c1-c1ccc(Cl)cc1 [PYRIMETHAMINE] | > 120 | – | 8.45 | 955 | IC50 (HEK293 [7]): 8070 nM |
| Cn1cc(NC(=O)c2cc(NC(=O)c3ccc(/C=C/c4ccncc4)cc3)cn2C)cc1C(=O)NCCN1CCOCC1 | 923 | – | 780 | > 26 | cytotoxicity at 20 µM [4]: 63% |
| CN(C)CCCNC(=O)c1cc(NC(=O)c2cc(NC(=O)c3cc(NC(=N)c4cc5ccccc5cn4)cn3C)cn2C)cn1C | 2770 | – | 3380 | – | cytotoxicity at 10 µM [9]: 40% |
| COc1cccc(C(=N)Nc2cc(C(=O)Nc3cc(C(=O)Nc4cc(C(=O)NCCCN(C)C)n(C)c4)n(C(C)C)c3)n(C)c2)c1 | – | Non-toxic | 9980 | – | inhibition at 20 µM (Plasmodium falciparum [6]): 100% |
| Cn1cc(NC(=O)c2cc(NC(=O)c3cc(NC=O)cn3C)cn2C)cc1C(=O)NCCN1CCOCC1 | – | Non-toxic | – | – | inhibition at 20 µM (Plasmodium falciparum [6]): 25%; inhibition at 20 µM (Plasmodium falciparum [8]): 98% |
